The text below walks through data of the Deep4Chem optical property database.

“And” between values parts separate entries of the source, which are not always exact repeats. Identical values can stand only once.

The series in a line: solvent given as SMILES.

The compound `COc1ccc(-c2c3nc(cc4ccc([nH]4)c(-c4ccc(OC)c(OCC(=O)O)c4)c4nc(cc5ccc2[nH]5)C=C4)C=C3)cc1OCC(=O)O` returned an absorption maximum (in CS(C)=O) of 633 nm.
Regarding `CCCCCCOc1ccc(-c2ccc(/C=C/c3cc(/C=C/c4ccc(-c5ccc(OCCCCCC)cc5)cc4)ncn3)cc2)cc1`, the absorption maximum (in ClCCl) is listed as 373 nm.
As to `COC(=O)c1c(NC(C)(C)C)oc(-c2ccc(-c3ccccc3)cc2)c1C(=O)OC`, under “in CC#N”, the absorption maximum was 355 nm.
`CN(C)c1ccc(C#Cc2cc3ccccc3oc2=O)cc1` returned an absorption maximum (in ClCCl) of 406 nm.
With `O=C([O-])c1cc2c(ccc3ccccc32)oc1=O`, the absorption maximum (in O) is reported as 360 nm.
On to `CCN(CC)c1ccc2c(-c3ccccc3C(=O)[O-])c3ccc(=[N+](CC)CC)cc-3oc2c1`, for which the absorption maximum by setting is: (in CC#N) 555 nm; (in CCO) 539 nm; (in CN(C)C=O) 560 nm; (in O) 554 nm.
Take `C#CCNC1=C2C=CC=[N+]2[B-](F)(F)n2cccc21`: the absorption maximum runs as follows: (in C1CCCCC1) 422.5 nm and 426 nm; (in CC(C)=O) 406 nm; (in CCCCO) 406 nm; (in CCCO) 408 nm; (in CCO) 406.5 nm and 406 nm; (in CCOC(C)=O) 408.5 nm. Further, the absorption maximum is 404 nm (in CN(C)C=O); 405 nm (in CO); 404 nm (in CS(C)=O); 421 nm (in Cc1ccccc1); 418 nm (in ClC(Cl)Cl); 404 nm (in OCC(F)(F)F). Where the note is “in c1ccccc1”, this compound registered an absorption maximum of 422 nm.
Consider `CSc1nccc(/C=C/c2ccc(N(c3ccccc3)c3ccc(/C=C/c4ccnc(SC)n4)cc3)cc2)n1`, for which the absorption maximum (in ClCCl) worked out at 430 nm.
Take `c1cc2c3c(cccc3c1)-c1c-2ccc2c1ccc1ccccc12`: the absorption maximum (in CCCCCCC) was found to be 405 nm.
Compound `C[N+]1=C(/C=C/C2=C3Oc4c(cc5c6c4CCCN6CCC5)C(c4ccccc4C(=O)O)=C3CCC2)C(C)(C)c2c1ccc1ccccc21` gave an absorption maximum (in CC#N) of 742 nm, an absorption maximum (in CCO) of 728 nm, an absorption maximum (in CO) of 730 nm and an absorption maximum (in ClC(Cl)Cl) of 746 nm.
Take `Cc1ccc(/C2=c3\cc/c(o3)=C(\c3ccc(C)cc3)c3ccc([nH]3)-c3ccc4n3[P-](=O)(=O)[N+]3=C(C=CC3=C4c3ccco3)c3ccc2[nH]3)cc1`: the absorption maximum (in ClC(Cl)Cl) turned out to be 744 nm.
`CC[N+]1(CC)CN2C(=N1)C(C(=O)O)=Cc1ccc(C)cc12`: the absorption maximum (in O) worked out at 370 nm.
For the compound `CN1/C(=C/C=C(/C=C/C2=[N+](C)c3ccccc3C2(C)C)c2ccc(C(F)(F)F)cc2)C(C)(C)c2ccccc21`, the absorption maximum reads like this: (in CCO) 637 nm; (in CO) 634 nm; (in CS(C)=O) 643 nm; (in O) 632 nm.
In turn, `CCCCCCOc1ccc(N(c2ccc(OCCCCCC)cc2)c2ccc(-c3sc(-c4ccc(N(c5ccc(OCCCCCC)cc5)c5ccc(OCCCCCC)cc5)cc4)c4nc(C(=O)OCC)c(C(=O)OCC)nc34)cc2)cc1` gave an absorption maximum (in ClCCl) of 665 nm.
Same read-out and setting: then `c1ccc(N2N=C(c3cccc4ccccc34)CC2c2ccc3ccc4cccc5ccc2c3c45)cc1` (stereo not drawn), with 391 nm.
The compound `Brc1cnc(-c2ccncc2)s1` returned an absorption maximum (in CO) of 306 nm.
In the case of `c1cc2c3c(cccc3c1)-c1cc3c(ccc4ccccc43)cc1-2`, under “in CCCCCCC”, the absorption maximum was found to be 405 nm.
On to `CC1=CC(C)=[N+]2C1=C(c1ccc(N3CCOCC3)cc1)c1c(C)cc(C)n1[B-]2(F)F`, for which the absorption maximum is listed as 500 nm (in C1CCOC1); 496 nm (in CC#N); 495 nm (in CC(=O)C(C)(C)C); 490 nm (in CC(C)=O); 498 nm (in CCCCCC); 498 nm (in CCOC(C)=O). Moreover, where the note is “in CO”, the absorption maximum was 494 nm.
With `COc1cccc(OC)c1-c1c2ccc(=[N+]3CCNCC3)cc-2oc2cc(N3CCNCC3)ccc12`, the absorption maximum is, setting by setting: (in CCO) 561 nm; (in O) 542 nm.
In turn, `CC(C)(C)c1ccc2c(c1)c1cc(C(C)(C)C)ccc1n2-c1cccc(-n2c3ccc(C(C)(C)C)cc3c3cc(C(C)(C)C)ccc32)c1C#N` showed an absorption maximum (in Cc1ccccc1) of 367 nm.
Take `CN(C)c1cc2c(cc1F)c(=O)c1cc(F)c(N)cc1n2C`: the absorption maximum (in CCO) is 369 nm.
For `c1ccc(N(c2ccccc2)c2ccc(-c3ncc(-c4ccncc4)s3)cc2)cc1`, the absorption maximum (in CO) was 397 nm.
Regarding `Cc1cc(C)n2c1C=C1C(=O)N(C)C(c3ccc([N+](=O)[O-])cc3)=[N+]1[B-]2(F)F`, the absorption maximum (in CCCCCC) is 498 nm.
Consider `c1ccc(-c2cc(-c3ccccc3)[o+]c(-c3ccccc3)c2)cc1`, for which the absorption maximum was found to be 403 nm (in CC#N) and 420 nm (in ClCCCl).
Compound `FC(F)(F)C(F)(F)C(F)(F)C1=NC2=C(Sc3ccccc3)C=C3c4cc(Sc5ccccc5)c5nc(C(F)(F)C(F)(F)C(F)(F)F)nc6c(Sc7ccccc7)cc(c4c56)=C4C=C(Sc5ccccc5)C(=N1)C2C34` (stereo not drawn) displayed an absorption maximum (in C1CCOC1) of 565 nm.
Compound `CCn1c(-c2ccc(N(c3ccccc3)c3cccc4ccccc34)cc2)c(-c2ccc3ccccc3c2)c(-c2ccc3ccccc3c2)c1-c1ccc(N(c2ccccc2)c2cccc3ccccc23)cc1` displayed an absorption maximum (in CCOC(C)=O) of 296 nm.
As for `O=C1Nc2ccccc2/C1=C/C(=O)c1ccc(Cl)cc1`, the absorption maximum is 335 nm (in C1CCCCC1); 335 nm (in C1COCCO1); 332 nm (in CC#N); 339 nm (in CC(C)(C)O); 339 nm (in CC(C)O); 334 nm (in CCCCCC). Further, the absorption maximum is recorded as 339 nm (in CCCCO); 335 nm (in CCOC(C)=O); 337 nm (in CN(C)C=O); 340 nm (in CO); 338 nm (in ClCCl); 341 nm (in O).
Under “in CS(C)=O”, `CCOC(=O)C1=C(N)n2c(=O)c3ccccc3c(=O)n2C1c1cccs1` (stereo not drawn) yielded an absorption maximum of 365 nm.
`CC1=[N+]2C(=C(c3ccccc3)c3c4c(c(C)n3[B-]2(F)F)CCc2ccccc2-4)C2=C1CCc1ccccc12` came in with an absorption maximum (in CC#N) of 565 nm.
Where the note is “in ClC(Cl)Cl”, `CCCCc1ccc(-n2c3c4cc(F)ccc4nc(-c4ccc(OC)cc4)c3c3c2c2c(-c4ccc(OC)cc4)nc4ccc(F)cc4c2n3-c2ccc(CCCC)cc2)cc1` had an absorption maximum of 305 nm.
Turning to `CN(C)c1ccc(/C=C/c2nc3ccc(Br)cc3nc2-c2ccccc2)cc1`, the absorption maximum was 445 nm (in C1COCCO1), 448 nm (in CC#N) and 453 nm (in ClCCl).
Take `F[B-]1(F)n2c(-c3ccccc3)cc(-c3ccccc3)c2N=C2C(c3ccccc3)=CC(c3ccccc3)=[N+]21`: the absorption maximum was determined as 643 nm (in CC#N) and 650 nm (in ClC(Cl)Cl).
With `COc1ccc2c(c1)C(=O)c1cc(OC)cc(OC)c1-2`, the absorption maximum reads like this: (in C1CCCCC1) 478 nm; (in CC#N) 491 nm; (in CCO) 492 nm.
In turn, `CC(C)CN1C(=O)/C(=C/c2ccc([N+](=O)[O-])cc2)C=C1c1ccccc1` returned an absorption maximum (in C1COCCO1) of 456 nm.
Consider `CN1c2ccccc2CCc2ccccc21`, for which the absorption maximum (in CC#N) was found to be 279 nm and the absorption maximum (in CO) was 278 nm.
In turn, `O=c1cc(-c2nc3ccccn3c2NC2CCCCC2)occ1OCc1ccccc1` yielded an absorption maximum (in ClCCl) of 357 nm.
As to `C/C(=C\c1ccc(C)cc1)c1nc2ccccc2o1`, the absorption maximum reads like this: (in C1CCCCC1) 315 nm; (in CO) 315 nm.
As for `CCn1c2ccccc2c2cc(/C=C/c3cc(/C=C/c4ccc5c(c4)c4ccccc4n5CC)nc(SC)n3)ccc21`, the absorption maximum runs as follows: (in C1CCOC1) 406 nm; (in CCOC(C)=O) 402 nm; (in CN(C)C=O) 413 nm; (in Cc1ccccc1) 405 nm; (in ClCCl) 409 nm.
On to `CC1(C)CC(/C=C/c2ccc(-n3ccnc3)cc2)=CC(=C(C#N)C#N)C1`, for which the absorption maximum amounted to 398 nm (in C1CCOC1); 390 nm (in CC#N); 391 nm (in CCO); 390 nm (in CCOC(C)=O); 393 nm (in ClCCl); 397 nm (in c1ccccc1).
Take `N#CC1=CC=CC(C#N)=P1(c1ccccc1)c1ccccc1`: the absorption maximum (in ClC(Cl)Cl) is reported as 458 nm.
`COc1ccc(C#Cc2c3cc4ccccc4cc3c(C#C[Si](C(C)C)(C(C)C)C(C)C)c3cc4ccccc4cc23)cc1` yielded an absorption maximum (in ClCCl) of 655 nm.
The same measure, in the same setting: under `CN(C)c1ccc(C#Cc2cc(C#Cc3ccc(C(F)(F)F)cc3)c3ccc4c(C#Cc5ccc(C(F)(F)F)cc5)cc(C#Cc5ccc(N(C)C)cc5)c5ccc2c3c54)cc1` stands 506 nm.
